Like-named read-outs stand apart in the source and are kept apart here.
What was measured:
[1] = target: T1, NΔ360 (derivative of EBNA1) (Epstein-Barr virus, UniProt P03211); type: biochemical; settings: for Ki: 6.5 nM dimers of NΔ360, 20 fmols DNA with two EBNA1-binding sites, Ki = concentration of competitor which inhibits linking to 50%, read-out: Ki against NΔ360
T1 construct: NΔ360 and NΔ389 have a methionine followed by amino acids 361 and 390 to the carboxy-terminus, respectively; added initiator methionine (N); made in house; host or cells: E. coli
Text: (§1) Two DNAs used as probes in this study were generated by endonuclease digestion of cloned DNAs. That with two EBNA1-binding sites is the 131 bp, SalI to PstI fragment derived from p880 (30); and that with five GAL4-binding sites is the 109 bp, HinDIII to XbaI fragment derived from G5BCAT (31). DNA fragments were purified from agarose gels. […] This method distinguishes less than two-fold differences in DNA concentrations. These DNAs were labeled with the Klenow fragment of DNA Polymerase 1 in the presence of dATP, dGTP, dTTP, and ^32P α-dCTP (Amersham), and precipitated three times to remove unincorporated label (32).
(§2) The derivatives of EBNA1 (bEBNA1, NΔ360, NΔ389) and the GAL4 derivatives (GAL4(1-94), GAL4(1-94)&54-89, GAL4(1-94)&331-361, GAL4(1-94)&372-391) used in this study were all produced and purified as previously described (28). Briefly, bEBNA1 lacks amino acids 2 through 7 and all but fifteen amino acids of the gly-gly-ala repeats and was expressed in SF21 cells (23). NΔ360 and NΔ389 lack the first 360 and 389 amino acids, respectively, and were expressed in E. coli. GAL4(1-94) contains amino acids 1 to 94 of the yeast transactivator GAL4 plus eight carboxy-terminal amino acids coded by the poly-cloning region. The fusions designated GAL4(1-94)&#—# contain the indicated residues from EBNA1 cloned in frame into the poly-cloning region. All derivatives and fragments of EBNA1 were derived from the B95-8 viral strain (33, 15).
(§3) A.A. 40-89 and A.A. 331-391 were generated by amplifying the fragment of EBNA1 encoding those amino acids with PCR primers containing SalI and XbaI sites at the 5′ ends. […] The sequence of both clones was verified using an ABI Prism automated sequencer (Applied BioSystems). Expression of the fusion proteins in BL21 bacteria containing a DE3 lysogen and carrying pLysS was done as previously described (28). Purification using Ni^2+-NTA agarose (Qiagen) followed standard protocols (The QIAexpressionist, Qiagen). Following elution of A.A. 40-89 and A.A. 331-391 in 500 and 150 mM imidazole, respectively, the peptides were dialyzed into a buffer containing 50 mM Tris (pH 7.5), 2.5 mM EDTA, and 0.3 M NaCl.
(§4) Gel shift assays were done as previously described (28). All reactions contained 20 mM N-2-hydroxyethylpiperazine-N′-2-ethanesulfonic acid (HEPES; pH 7.6), 2 mM EDTA, 10% glycerol, 0.1% Nonidet P-40, and 0.3 M NaCl. Proteins were mixed in volume of 15 μl. The labeled DNA and 3 μg of poly(dI)•poly(dC) (Pharmacia) in 8 μl were added with mixing. The reactions were then incubated 30-45 minutes at room temperature. Reactions were separated by electrophoresis at 15-25 mA through a 4% polyacrylamide gel in 0.5×TBE (45 mM Tris-borate and 1 mM EDTA). Gels were dried on 3MM chromatography paper (Whatman) at 80° C. for 1 hour and then exposed to phosphorimager screens. The percentage of DNA linked is determined by dividing the amount of linked DNA by the total amount of DNA in the lane.
(§5) FIG. 3A: 20 fmols of a DNA with two EBNA1-binding sites were combined with the indicated concentrations of dimers of NΔ360 and A.A. 331-391 prior to separation by electrophoresis through a 4% polyacrylamide gel. […] The positions of linked DNA, unbound DNA, and DNA with one and two sites occupied by NΔ360 (1 and 2, respectively) are indicated. […] The percentage bound is the fraction of the total DNA in the lane which is shifted above the bracket for unbound DNA. […] The standard deviations are from three separate experiments.

[2] = target: bEBNA1 (derivative of EBNA1); type: biochemical, Epstein-Barr virus; settings: for Ki: 6.5 nM dimers of bEBNA1, 20 fmols DNA with two EBNA1-binding sites, Ki = concentration of competitor which inhibits linking to 50%, read-out: Ki against bEBNA1; for Ki for linking by bEBNA1 relative to linking by NΔ360: DNA with two EBNA1-binding sites; for Effectiveness of competition with linking by bEBNA1 relative to linking by NΔ360: DNA with two binding sites
Description: (§6) Two DNAs used as probes in this study were generated by endonuclease digestion of cloned DNAs. That with two EBNA1-binding sites is the 131 bp, SalI to PstI fragment derived from p880 (30); and that with five GAL4-binding sites is the 109 bp, HinDIII to XbaI fragment derived from G5BCAT (31). DNA fragments were purified from agarose gels. They were quantified by making serial dilutions in the presence of ethidium bromide (0.5 μg/mL) and comparing their intensities, when exposed to ultraviolet light, to that of similar dilutions of a standard DNA. This method distinguishes less than two-fold differences in DNA concentrations. These DNAs were labeled with the Klenow fragment of DNA Polymerase 1 in the presence of dATP, dGTP, dTTP, and ^32P α-dCTP (Amersham), and precipitated three times to remove unincorporated label (32).
as §2, §3, §4

[3] = tested on: DNA with two EBNA1-binding sites; assay: Gel shift assay: binding of the peptides to DNA in the absence of NΔ360; settings: for Concentration reducing linking to 50% as percentage of concentration required to bind 50% of the DNA: 6.5 nM dimers of NΔ360, DNA binding in absence of NΔ360; for Difference between Ki and concentration which bound 50% of the DNA: linking by NΔ360 vs DNA binding by peptide alone
Text: as §1, §4, §5

[4] = target: T2, GAL4(1-94)&54-89 (Epstein-Barr virus, UniProt P03211); assay: Gel shift assay: inhibition of DNA-linking by GAL4(1-94)&54-89; type: biochemical; settings: 2.5-fold molar excess of competitor; DNA with five GAL4-binding sites (FIG. 2A)
T2 construct: made in house
Description: as §6, with “(32). […]” for “(32).”
Gel shift assays were done as previously described (28). […] The percentage of DNA linked is determined by dividing the amount of linked DNA by the total amount of DNA in the lane.
The ability of GAL4(1-94)&54-89 (FIG. 1) to link DNAs containing five GAL4-binding sites was tested in the absence of any competitor and in the presence of a 2.5-fold molar excess of three derivatives of EBNA1 (FIG. 1). […] For both FIGS. 2A and B the reactions were manipulated and analyzed to determine the percentage of maximum DNA linked as in FIG. 3. […]

[5] = DNA with two EBNA1-binding sites, read-out: Concentration for 50% inhibition of linking by NΔ360
[6] = linking by NΔ360, DNA with two binding sites

A.A. 40-89: EBNA1 amino acids 40-89 fused to an amino-terminal epitope (T7 Tag) and 6 carboxy-terminal histidines, expressed in bacteria
Ki [1]: 55 nM | IC50 [1, 5]: 55 nM | Ki [2]: 7600 nM | Ki for linking by bEBNA1 relative to linking by NΔ360 [2]: 140 fold | Effectiveness of competition with linking by bEBNA1 relative to linking by NΔ360 [2]: approximately 1% | Concentration reducing linking to 50% as percentage of concentration required to bind 50% of the DNA [3]: 1% | Difference between Ki and concentration which bound 50% of the DNA [3]: 100 fold

A.A. 331-391: EBNA1 amino acids 331-391 fused to an amino-terminal epitope (T7 Tag) and 6 carboxy-terminal histidines, expressed in bacteria
Ki [1]: 30 nM | Excess of competitor relative to NΔ360 that halves the percentage of DNA linked ([1]; DNA with two EBNA1-binding sites): 5 fold | IC50 [1, 5]: 30 nM | Effectiveness of competition for linking of the ten binding site DNA relative to the two binding site DNA ([1]; linking by NΔ360, data not shown): approximately 0.3% | Ki [2]: 3300 nM | Ki for linking by bEBNA1 relative to linking by NΔ360 [2]: 110 fold | Effectiveness of competition with linking by bEBNA1 relative to linking by NΔ360 [2]: approximately 1% | Concentration reducing linking to 50% as percentage of concentration required to bind 50% of the DNA [3]: 2% | Difference between Ki and concentration which bound 50% of the DNA [3]: 50 fold

GAL4(1-94): Amino acids 1 to 94 of the yeast transactivator GAL4 plus eight carboxy-terminal amino acids coded by the poly-cloning region [reference compound]
Inhibition of linking by NΔ360 ([1]; 4.5-fold molar excess of GAL4-derivative, DNA with two EBNA1-binding sites (FIG. 2B)): did not inhibit linking

Poly-Lysine [reference compound]
Ki [1]: 1900 nM | IC50 ([1]; DNAs with two EBNA1-binding sites, read-out: Concentration inhibiting linking by NΔ360 to 50%): 1900 nM | Ki of polyK relative to Ki of A.A. 40-89 [1, 6]: 35 fold | Ki of polyK relative to Ki of A.A. 331-391 [1, 6]: 60 fold | Ki [2]: 11000 nM | Ki for linking by bEBNA1 relative to linking by NΔ360 [2]: 6 fold

NΔ360: EBNA1 derivative lacking the first 360 amino acids, expressed in E. coli
Inhibition of linking by GAL4(1-94)&54-89 [4]: inhibited linking
